The GI50 is the concentration at which growth is held to half of that of the control. Read a high GI50 as lower sensitivity of the cells.

We go through 1 compound from ChEMBL document CHEMBL5500390, “Overcoming Secondary Mutations of Type II Kinase Inhibitors” (J Med Chem, 2024).

Experiment [1] can be described thus: Inhibition of cell growth in mouse 32D cells transfected with FLT3 ITD F691L mutant incubated for 2 days. The experiment is classed as functional. As to conditions: 48 h, time 2 day.
The nature of experiment [2]: Inhibition of cell growth in mouse 32D cells transfected with FLT3 ITD mutant incubated for 2 days. In kind it is functional. Conditions: 48 h, time 2 day.

With `CCCNc1nc(Nc2ccc(C#N)cc2)ncc1C#CCCCNC(=O)[C@H](C)N(C)C(=O)/C=C/CN(C)C` [FF-10101], the figures for the GI50 in experiment [1] and in experiment [2] were 10 nM and 1.9 nM, respectively.
